Legend:
[1] = cited from earlier work
[2] = molecular target: TaK1-TaB1 (TAK-1 enzyme) (Homo sapiens (Human), UniProt O43318); assay: TaK1-TaB1 inhibitor assay (IC50 of RAL analogues against TAK-1 enzyme); format: biochemical
Source text: IV. TaK1-TaB1 (Transforming Growth Factor-β Activated Linase-1/TAK-1 Binding Protein 1) Inhibitor Assays

[3] = restated in Table 2 beside docking scores

Chain of TaK1-TaB1 (TAK-1 enzyme) (O43318 other isoform, or with tags, fused parts or gaps): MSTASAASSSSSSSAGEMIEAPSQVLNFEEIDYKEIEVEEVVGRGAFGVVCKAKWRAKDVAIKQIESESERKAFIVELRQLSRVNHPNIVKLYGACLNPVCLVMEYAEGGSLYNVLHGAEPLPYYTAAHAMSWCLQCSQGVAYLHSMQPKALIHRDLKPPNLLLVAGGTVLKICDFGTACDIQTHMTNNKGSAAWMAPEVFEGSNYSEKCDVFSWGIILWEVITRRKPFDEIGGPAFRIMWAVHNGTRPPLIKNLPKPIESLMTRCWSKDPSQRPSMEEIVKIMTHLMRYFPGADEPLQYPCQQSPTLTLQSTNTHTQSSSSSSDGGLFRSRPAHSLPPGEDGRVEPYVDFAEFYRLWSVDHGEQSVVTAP

Row | SMILES | IC50 ([2]; Table 1, TAK-1 enzyme) [µM] | IC50 [2, 3] [µM] | also measured
1 | COc1cc(O)c2c(c1)/C=C/C[C@H](O)[C@H](O)C(=O)/C=C\C[C@H](C)OC2=O [(5Z)-7-oxozeaenol] | – | – | stability in plasma [1]: instability in plasma
2 | C/C=C\C=C/C(=O)[C@@H](O)[C@@H](O)C/C=C/c1cc(OC)cc(OC)c1C(=O)OC [Compound 4, Methyl 2-((1E,4S,5S,7Z,9Z)-4,5-dihydroxy-6-oxoundeca-1,7,9-trien-1-yl)-4,6-dimethoxybenzoate] | > 30 | > 30 | –
3 | COC1=CC(=O)C2=C(/C=C/C[C@H](O)[C@H](O)C(=O)/C=C\C[C@H](C)OC2=O)C1(F)F [Compound 5, (3S,5Z,8S,9S,11E)-13,13-Difluoro-8,9-dihydroxy-14-methoxy-3-methyl-3,4,9,10-tetrahydro-1H benzo[c][1]oxacyclotetradecine-1,7,16(8H,13H)-trione] | – | – | activity in TAK-1 assay ([2]; among synthesized analogues): relatively active
4 | COc1cc2c(c(O)c1Br)C(=O)O[C@@H](C)C/C=C\C(=O)[C@@H](O)[C@@H](O)C/C=C/2 [Compound 6, (3S,5Z,8S,9S,11E)-15-Bromo-8,9,16-trihydroxy-14-methoxy-3-methyl-3,4,9,10-tetrahydro-1H-benzo[c][1]oxacyclotetradecine-1,7(8H)-dione] | 2.6 | – | –
5 | COc1cc(O)c2c(c1Br)/C=C/C[C@H](O)[C@H](O)C(=O)/C=C\C[C@H](C)OC2=O [Compound 7, (3S,5Z,8S,9S,11E)-13-Bromo-8,9,16-trihydroxy-14-methoxy-3-methyl-3,4,9,10-tetrahydro-1H-benzo[c][1]oxacyclotetradecine-1,7(8H)-dione] | 0.36 | – | –
6 | COc1c(Br)c(O)c2c(c1Br)/C=C/C[C@H](O)[C@H](O)C(=O)/C=C\C[C@H](C)OC2=O [Compound 8, (3S,5Z,8S,9S,11E)-13,15-Dibromo-8,9,16-trihydroxy-14methoxy-3-methyl-3,4,9,10-tetrahydro-1H-benzo[c][1]oxacyclotetradecine-1,7(8H)-dione] | – | 8.9 | –
7 | COc1cc(O)c2c(c1)/C=C/C[C@@H]1OC(CC(=O)[C@H]1O)C[C@H](C)OC2=O [Compound 9, (1^2S,1^3S,8S,E)-1^3,5^3-Dihydroxy-5^5-methoxy-8-methyl-1^3,1^4,1^5,1^6-tetrahydro-1^2H-7-oxa-1(2,6)-pyrana-5(1,2) benzenacyclononaphan-3-ene-1^4,6-dione] | > 30 | – | –
8 | COc1cc(O)c2c(c1)/C=C/C[C@@H]1OC(C)(C)O[C@@H]1C(=O)/C=C\C[C@H](C)OC2=O [Compound 10, (3aS,5Z,8S,15E,17aS)-11-Hydroxy-13-methoxy-2,2,8-trimethyl-7,8,17,17a-tetrahydro-4H-benzo[c][1,3]dioxolo[4,5-h][1]oxacyclotetradecine-4,10(3aH)-dione] | – | 0.38 | –
9 | COc1cc(O)cc2c1C(=O)O[C@@H](C)CCCCC/C=C/C(=O)C2 [Greensporone C, reference compound] | – | > 30 | –
10 | COc1cc(O)c2c(c1)/C=C/C[C@H](O)[C@H](O)C(=O)CCC[C@H](C)OC2=O [LL-Z164-1, reference compound] | 2.6 | – | –
11 | COc1cc(O)c2c(c1)[C@H]1O[C@@H]1C[C@H](O)[C@H](O)C(=O)CCC[C@H](C)OC2=O [dihydrohypothemycin, reference compound] | > 30 | – | –
12 | COc1cc(O)c2c(c1)/C=C/C[C@H](O)[C@H](O)[C@@H](O)/C=C/C[C@H](C)OC2=O [zeaenol, reference compound] | 10 | – | –

Reference: patent US10434085B2, “Non-aromatic difluoro analogues of resorcylic acid lactones” (The University of North Carolina at Greensboro, priority 2015, dated 2019)
